Values quoted from earlier work in patent publication US20040109898A1, “Topical composition for heightened sensitivity” (priority 2002, published 2004).
Like-named read-outs stand apart in the source and are kept apart here.

Assays:
[1] = cold, heat, cooking, freezing

solubility in alcohols, fats, and oils (alcohols, fats, and oils)	solubility in water (water)	SMILES	Scoville Units rating (panel of individuals; individual capsaicinoid)	Scoville Unit (SU) rating (panel of individuals; pure, individual capsaicinoids)	detectable to the palate in dilutions of (palate)	stability / retention of potency [1]	Scoville Unit (SU) rating (panel of individuals)
very soluble	slightly soluble	COc1cc(CNC(=O)CCCC/C=C/C(C)C)ccc1O [Capsaicin, 8-methyl-N-vanillyl-6-(E)-nonenamide]	16 million Scoville Units	16 million SU	one to seventeen million	seemingly unaffected by cold or heat, which retains its original potency despite time, cooking, or freezing	
		COc1cc(CNC(=O)CCCCC/C=C/C(C)C)ccc1O [Homocapsaicin, 9-methyl-N-vanillyl-7-(E)-decenamide]					8.6 million SU
		COc1cc(CNC(=O)CCCCCCCC(C)C)ccc1O [Homodihydrocapsaicin, 9-methyl-N-vanillyl-decanamide]		8.6 million SU			
